Test system: CD34+ cells
Assay: Antagonist pretreatment and LPA-induced CD34+ cell survival in hypoxia (Annexin V/PI FACS)
Type: cell-based, human
Conditions: LPA 100 μM alone (+LPA, no antagonist); hypoxia 24 h
Experimental: FIG. 5—LPA induces CD34+ cell survival mainly through peroxisome proliferator-activator receptor (PPAR). Cells were cultured in serum free medium with LPA. Cells were pretreated with Rho kinase inhibitor (Y-2762, 50 μM), mitogen-activated protein kinase (MAPK) inhibitor (PD98059, 60 μM), LPA1- and LPA3-specific inhibitor (Ki16425, 10 μM), or peroxisome proliferator-activator receptor g (PPARg) inhibitor (GW9662, 50 μM) for 1 hour before hypoxia and cell medium containing LPA (100 μM) for 24 h. Cells without any pretreatment and cultured in serum free medium with or without LPA, in hypoxia for 24 h, were used as positive and negative controls, respectively. Results are average±SEM (n=3-6). * Denote statistical significance: *P<0.05, **P<0.01, […].
The biological roles of LPA are diverse and include developmental, physiological, and pathophysiological effects (Lin, M. E., D. R. Herr, and J. Chun, Lysophosphatidic acid (LPA) receptors: signaling properties and disease relevance. Prostaglandins Other Lipid Mediat, 2010. 91(3-4): p. 130-8). To date up to five LPA receptors (LPARs) have been identified: LPA1-LPA5 (Choi, J. W., et al., LPA receptors: subtypes and biological actions. Annu Rev Pharmacol Toxicol, 2010. 50: p. 157-86). The receptors are G protein-coupled receptors (GPCRs) and their presence can be found in multiple tissues. LPA1, LPA2 and LPA3 are widely expressed in most tissues (Ishii, I., et al., Functional comparisons of the lysophosphatidic acid receptors, LP(A1)/VZG-1/EDG-2, LP(A2)/EDG-4, and LP(A3)/EDG-7 in neuronal cell lines using a retrovirus expression system. Mol Pharmacol, 2000. 58(5): p. 895-902). LP4 is expressed in specific organs, such as the pancreas, ovaries and thymus (Lee, C. W., et al., LPA(4)/GPR23 is a lysophosphatidic acid (LPA) receptor utilizing G(s)-, G(q)/G(i)-mediated calcium signaling and G(12/13)-mediated Rho activation. J Biol Chem, 2007. 282(7): p. 4310-7). LPA5 is expressed at low levels in multiple tissues (Lee, C. W., et al., GPR92 as a new G12/13- and Gq-coupled lysophosphatidic acid receptor that increases cAMP, LPA5. J Biol Chem, 2006. 281(33): p. 23589-97). To identify the receptor that is mediating the pro-survival effect of LPA (100 μM), was used Ki16425 (10 μM), an LPA1- and LPA3-specific antagonist, and GW9662 (50 μM), an antagonist of peroxisome proliferator-activator receptor γ (PPAR γ). Studies indicate that LPA has a high affinity by this last receptor (McIntyre, T. M., et al., Identification of an intracellular receptor for lysophosphatidic acid (LPA): LPA is a transcellular PPARgamma agonist. Proc Natl Acad Sci USA, 2003. 100(1): p. 131-6; Gustin, C., M. Van Steenbrugge, and M. Raes, LPA modulates monocyte migration directly and via LPA-stimulated endothelial cells. Am J Physiol Cell Physiol, 2008. 295(4): p. C905-14). This approach was complemented, by inhibiting downstream targets of the receptors including Rho kinase and mitogen-activated protein kinase (MAPK) using Y-2762 (50 μM) and PD98059 (60 μM) antagonists, respectively. It is known that all LPARs couple with and activate G proteins, which in turn activate MAPK (LPA1, LPA2, LPA3 and LPA4) and Rho kinase (LPA1, LPA2, LPA4 and LPA5) (Choi, J. W., et al., LPA receptors: subtypes and biological actions. Annu Rev Pharmacol Toxicol, 2010. 50: p. 157-86). Cells were treated for 1 h in X-Vivo medium containing a specific antagonist followed by culture under hypoxia conditions for 24 h. Cell survival was assessed by FACS analysis after Annexin V/PI staining. […] The number of viable cells decreased from 77% (+LPA) to 67% (P<0.01, n=19). […] Because the two signaling pathways are downstream targets of different LPARs (see above), this might indicate different contributions of LPARs in the survival of CD34+ cells.

lysophosphatidic acid [LPA]
number of viable cells: ~77%
